Reference: the OligoGym collection
These antisense oligonucleotides have a phosphorothioate backbone; sugars and methylation of C are not fully specified.

Key:
Conditions in all cases: ASO
MAP2K6 = target: MAP2K6
PCK2 = target: PCK2
SMAD2 = target: SMAD2
RHOC = target: RHOC
Also: test concentration or dose not given here.

Work on CGCTGCTGAAGAAAGATGCG yielded a remaining target (mRNA or protein) (fraction of control) (MAP2K6) of 0.85.

For TGCGGCCATGGCACCTGGGC, the remaining target (mRNA or protein) (fraction of control) (PCK2) was 0.55.

TAACATTGGAGAGTAAAC gave a remaining target (mRNA or protein) (fraction of control) (SMAD2) of 0.54.

With AGGCACCATCCCCAACGA the remaining target (mRNA or protein) (fraction of control) (RHOC) was 0.19.

With GCTCCAGGTCATCTGCCTTC the remaining target (mRNA or protein) (fraction of control) (MAP2K6) was 0.65.

With GACTGAGACATTTTCCCCTT the remaining target (mRNA or protein) (fraction of control) (MAP2K6) was 0.88.

In the case of GTGAATTGCCAAATAGACAC, the remaining target (mRNA or protein) (fraction of control) (MAP2K6) is reported as 0.8.

For GGTGGGCCGAACCAGAAGCC, the remaining target (mRNA or protein) (fraction of control) (MAP2K6) was ≥ 1.

Sequence TAAACCTAAGCAGAACCT has a remaining target (mRNA or protein) (fraction of control) (SMAD2) of 0.37.

Sequence TATTTTCCCTGTCAATTACT has a remaining target (mRNA or protein) (fraction of control) (MAP2K6) of 0.99.

For CGAGAAAGAACTTTTGCTGT, the remaining target (mRNA or protein) (fraction of control) (MAP2K6) was ≥ 1.

Sequence GGCGGTACAATGCGGCCATG has a remaining target (mRNA or protein) (fraction of control) (PCK2) of 0.81.

Sequence GTGTGCTCGTCTTGCCTC has a remaining target (mRNA or protein) (fraction of control) (RHOC) of 0.33.

Sequence AATGCTATGACAGAAGAG has a remaining target (mRNA or protein) (fraction of control) (SMAD2) of 0.76.

For CCCACAAACACCCCATGACG, the remaining target (mRNA or protein) (fraction of control) (PCK2) was 0.35.

For GCGGAAGTTCTGTTAGGA, the remaining target (mRNA or protein) (fraction of control) (SMAD2) was 0.43.

With CTTCCATCCCAGCAGTCT the remaining target (mRNA or protein) (fraction of control) (SMAD2) was 0.1.

GGAACTGAAAATGGAGCC showed a remaining target (mRNA or protein) (fraction of control) (RHOC) of 0.98.

Work on TGTTGGTCACTTGTTTCT yielded a remaining target (mRNA or protein) (fraction of control) (SMAD2) of 0.58.

Work on CTTGTTCTTGCGGACCTG yielded a remaining target (mRNA or protein) (fraction of control) (RHOC) of 0.28.

GGCAAAACTGGTGTCTCA was tested, and the remaining target (mRNA or protein) (fraction of control) (SMAD2) was 0.26.

CTTCACCCCGAAACCCACCA was tested, and the remaining target (mRNA or protein) (fraction of control) (MAP2K6) was 0.34.

In the case of GGCCATCTCAAACACCTC, the remaining target (mRNA or protein) (fraction of control) (RHOC) is reported as 0.36.

TCCAGCCTGGCAGTGCAGGC gave a remaining target (mRNA or protein) (fraction of control) (PCK2) of 0.75.

Sequence AAACAGCCTCTTGTATCG has a remaining target (mRNA or protein) (fraction of control) (SMAD2) of 0.29.

Sequence CTCACACCACTTTTCTTC has a remaining target (mRNA or protein) (fraction of control) (SMAD2) of 0.1.

With TCCATCACAGATGTGGATGC the remaining target (mRNA or protein) (fraction of control) (PCK2) was 0.87.

GGCACCATCCCCAACGAT gave a remaining target (mRNA or protein) (fraction of control) (RHOC) of 0.19.

GCTGAAGTTCCCAGGCTG showed a remaining target (mRNA or protein) (fraction of control) (RHOC) of 0.75.

ATCTGTTCCTTTGGATTCAT gave a remaining target (mRNA or protein) (fraction of control) (MAP2K6) of 0.73.

For GCCATAAAAGGTGACAGTGA, the remaining target (mRNA or protein) (fraction of control) (MAP2K6) was 0.86.

Sequence CCTGTGAGCCAGAAGTGT has a remaining target (mRNA or protein) (fraction of control) (RHOC) of 0.31.

Work on TCGACTGAGACATTTTCCCC yielded a remaining target (mRNA or protein) (fraction of control) (MAP2K6) of 0.8.

TATCAAAGAATTACTCACTA gave a remaining target (mRNA or protein) (fraction of control) (MAP2K6) of 0.85.

TATGTAGGCCGTTCTTTGGA gave a remaining target (mRNA or protein) (fraction of control) (MAP2K6) of 0.95.

Work on GGAGGGAACTGAAAATGG yielded a remaining target (mRNA or protein) (fraction of control) (RHOC) of 0.87.

With CCCTAAAAGATGTGGTGATC the remaining target (mRNA or protein) (fraction of control) (MAP2K6) was ≥ 1.

In the case of GCTACGGCATGATGGCCAGC, the remaining target (mRNA or protein) (fraction of control) (PCK2) is reported as 0.89.

In the case of GTTTCTGTTCCTGGCTATTT, the remaining target (mRNA or protein) (fraction of control) (MAP2K6) is reported as 0.79.

With TCCCACAGGCACCATCCC the remaining target (mRNA or protein) (fraction of control) (RHOC) was 0.3.

With CACTTTCCTGTGAGCCAG the remaining target (mRNA or protein) (fraction of control) (RHOC) was 0.18.

GAGCCTTCAGTATGGAGC showed a remaining target (mRNA or protein) (fraction of control) (RHOC) of 0.37.

In the case of TTCCTCAGACCGAACGGG, the remaining target (mRNA or protein) (fraction of control) (RHOC) is reported as 0.43.

Sequence CTCAAACACCTCCCGCAC has a remaining target (mRNA or protein) (fraction of control) (RHOC) of 0.66.

In the case of AAGATGTTAGTTAATATCAA, the remaining target (mRNA or protein) (fraction of control) (PCK2) is reported as ≥ 1.

In the case of TTGGAGTCTAAATCTCTAGG, the remaining target (mRNA or protein) (fraction of control) (MAP2K6) is reported as ≥ 1.

For CATGAGGAAGGGCAGGGC, the remaining target (mRNA or protein) (fraction of control) (RHOC) was ≥ 1.

TGAGGCCGCTGAGATCCAAG showed a remaining target (mRNA or protein) (fraction of control) (PCK2) of 0.67.

GGCAGATCCTGGTTGACCTG showed a remaining target (mRNA or protein) (fraction of control) (PCK2) of 0.81.

For TTCCTGTGAGCCAGAAGT, the remaining target (mRNA or protein) (fraction of control) (RHOC) was 0.31.

In the case of CACTTGACAAAGTCACCATC, the remaining target (mRNA or protein) (fraction of control) (PCK2) is reported as ≥ 1.

For CACCGTCTTGCTCTCTACTC, the remaining target (mRNA or protein) (fraction of control) (PCK2) was 0.85.

In the case of TTTTCCCCTTTCCTTTGATG, the remaining target (mRNA or protein) (fraction of control) (MAP2K6) is reported as ≥ 1.

For AAGAGAGGATTCAGGGAAGC, the remaining target (mRNA or protein) (fraction of control) (MAP2K6) was ≥ 1.

Work on AGACACTTTCCTGTGAGC yielded a remaining target (mRNA or protein) (fraction of control) (RHOC) of 0.31.

CCGGCTGAAGTTCCCAGG gave a remaining target (mRNA or protein) (fraction of control) (RHOC) of 0.58.

For TTAAAATAGATAAGCATCTC, the remaining target (mRNA or protein) (fraction of control) (PCK2) was ≥ 1.

In the case of CAGTTCATTCTATACTATAG, the remaining target (mRNA or protein) (fraction of control) (MAP2K6) is reported as 0.7.

CTCCCGCACTCCCTCCTT was tested, and the remaining target (mRNA or protein) (fraction of control) (RHOC) was 0.09.

Work on TGGGTGTCTCTCGGGCACTG yielded a remaining target (mRNA or protein) (fraction of control) (PCK2) of 0.9.

ACCAGGCGGGAGTGGTACCG was tested, and the remaining target (mRNA or protein) (fraction of control) (PCK2) was 0.84.

With TCGGATGAGGCCCTGCTGCT the remaining target (mRNA or protein) (fraction of control) (PCK2) was 0.86.

With GGACAGTCTTTGTGGGAAGG the remaining target (mRNA or protein) (fraction of control) (PCK2) was ≥ 1.

In the case of AATTTTAAGGCCAGGGTTTC, the remaining target (mRNA or protein) (fraction of control) (MAP2K6) is reported as ≥ 1.

With GATGCATATTAAATAATTTC the remaining target (mRNA or protein) (fraction of control) (MAP2K6) was 0.83.

For GGGCCTCCCAGGCTGGGTCC, the remaining target (mRNA or protein) (fraction of control) (PCK2) was ≥ 1.

Work on CTTGCCTTTCGACTGAGACA yielded a remaining target (mRNA or protein) (fraction of control) (MAP2K6) of 0.58.

TGCCTTTCGACTGAGACATT was tested, and the remaining target (mRNA or protein) (fraction of control) (MAP2K6) was 0.67.

With AGGAACCGAGCGGAGCCGGG the remaining target (mRNA or protein) (fraction of control) (PCK2) was 0.68.
